Results reported in patent US6479435B1, “Diaryl ethers and processes for their preparation and herbicidal and desiccant compositions containing them” (ISK Americas Incorporated, priority 1997, dated 2002).

Key:
Type in all cases: in vivo
[1] = system: green foxtail (Setaria viridis, SETVI); assay: Pre-emerge greenhouse herbicide test, phytotoxicity rating; settings: 14 days after application, rating scale 0-100
Outline: (§1)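 Seeds sown in sandy loam one day before track-sprayer application of acetone solutions at 125–1000 g ai/ha (187 l/ha), then surface-watered to incorporate and bottom-watered. Injury scored visually at 14 days on a 0–100 scale (0 no damage, 100 complete death).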

[2] = system: Johnsongrass (Sorghum halepense, SORHA); assay: as above; settings: 14 days after application, rating scale 0-100
Outline: as §1

[3] = system: common ragweed (Ambrosia artemisiifolia L., AMBEL); assay: as above; settings: 14 days after application, rating scale 0-100
Outline: as §1

[4] = system: large crabgrass (Digitaria sanguinalis, DIGSA); assay: as above; settings: 14 days after application, rating scale 0-100
Outline: as §1

[5] = system: barnyardgrass (Echinochloa crusgalli, ECHCG); assay: as above; settings: 14 days after application, rating scale 0-100
Outline: as §1

[6] = system: velvetleaf (Abutilon theophrasti, ABUTH); assay: as above; settings: 14 days after application, rating scale 0-100
Outline: as §1

[7] = system: ivyleaf morningglory (Ipomoea hederacea, IPOHE); assay: as above; settings: 14 days after application, rating scale 0-100
Outline: as §1

[8] = system: lambsquarters (Chenopodium album, CHEAL); assay: as above; settings: 14 days after application, rating scale 0-100
Outline: as §1

[9] = system: redroot pigweed (Amaranthus retroflexus, AMARE); assay: as above; settings: 14 days after application, rating scale 0-100
Outline: as §1

[10] = system: sicklepod (Cassia obtusifolia, CASOB); assay: as above; settings: 14 days after application, rating scale 0-100
Outline: as §1

[11] = system: field corn (Zea mays L., var. Dekalb 535, CORN); assay: Pre-emerge greenhouse test, crop damage rating; settings: 14 days after application, rating scale 0-100
Outline: as §1

[12] = system: upland rice (Oryza sp., var.Tebonnet, RICE); assay: Pre-emerge greenhouse test, crop damage rating; settings: 14 days after application, rating scale 0-100
Outline: as §1

[13] = system: soybean (Glycine max L., var. Pella 86, SOY); assay: Post-emerge greenhouse test, crop damage rating; settings: 14 days after application
Outline: (§2)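 Plants at the 2-3 leaf stage, sown 8-21 days earlier, were track-sprayed post-emergence with compound in acetone plus 0.25% v/v non-ionic surfactant at 63-1000 g ai/ha (187 l/ha). Damage was rated at 14 days on a 0-100 scale (0 none, 100 all plants dead), for both crop injury and weed control.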

[14] = system: common ragweed (Ambrosia artemisiifolia L., AMBEL); assay: Post-emerge greenhouse herbicide test, phytotoxicity rating; settings: 14 days after application
Outline: as §2

[15] = system: green foxtail (Setaria viridis, SETVI); assay: as above; settings: 14 days after application
Outline: as §2

[16] = system: Johnsongrass (Sorghum halepense, SORHA); assay: as above; settings: 14 days after application
Outline: as §2

[17] = system: large crabgrass (Digitaria sanguinalis, DIGSA); assay: as above; settings: 14 days after application
Outline: as §2

[18] = system: barnyardgrass (Echinochloa crusgalli, ECHCG); assay: as above; settings: 14 days after application
Outline: as §2

[19] = system: velvetleaf (Abutilon theophrasti, ABUTH); assay: as above; settings: 14 days after application
Outline: as §2

[20] = system: ivyleaf morningglory (Ipomoea hederacea, IPOHE); assay: as above; settings: 14 days after application
Outline: as §2

[21] = system: lambsquarters (Chenopodium album, CHEAL); assay: as above; settings: 14 days after application
Outline: as §2

[22] = system: redroot pigweed (Amaranthus retroflexus, AMARE); assay: as above; settings: 14 days after application
Outline: as §2

[23] = system: sicklepod (Cassia obtusifolia, CASOB); assay: as above; settings: 14 days after application
Outline: as §2

[24] = system: field corn (Zea mays L., var. Dekalb 535, CORN); assay: Post-emerge greenhouse test, crop damage rating; settings: 14 days after application
Outline: as §2

[25] = system: upland rice (Oryza sp., var.Tebonnet, RICE); assay: Post-emerge greenhouse test, crop damage rating; settings: 14 days after application
Outline: as §2

[26] = system: soybean (Glycine max L., var. Pella 86, SOY); assay: Pre-emerge greenhouse test, crop damage rating; settings: 14 days after application, rating scale 0-100
Outline: as §1

O=C1C2=CCCCN2C(=O)N1c1cc(Oc2ncccc2C(F)(F)F)c(Cl)cc1F [Compound 4-2]
99: IPOHE phytotoxicity rating (0-100) ([20]; 500 g al/ha)
0: phytotoxicity rating SORHA ([2]; 500 g ai/ha) | phytotoxicity rating DIGSA ([4]; 500 g ai/ha) | phytotoxicity rating ECHCG ([5]; 500 g ai/ha) | phytotoxicity rating IPOHE ([7]; 500 g ai/ha) | phytotoxicity rating CASOB ([10]; 500 g ai/ha) | crop damage rating CORN ([11]; 500 g ai/ha) | crop damage rating RICE ([12]; 500 g ai/ha) | SORHA phytotoxicity rating (0-100) ([16]; 500 g al/ha) | DIGSA phytotoxicity rating (0-100) ([17]; 500 g al/ha) | ECHCG phytotoxicity rating (0-100) ([18]; 500 g al/ha) | crop damage rating SOY ([26]; 500 g ai/ha)
70: ABUTH phytotoxicity rating (0-100) ([19]; 500 g al/ha)
5: CORN crop damage rating (0-100) ([24]; 500 g al/ha)
100: phytotoxicity rating AMBEL ([3]; 500 g ai/ha) | phytotoxicity rating CHEAL ([8]; 500 g ai/ha) | phytotoxicity rating AMARE ([9]; 500 g ai/ha) | AMARE phytotoxicity rating (0-100) ([22]; 500 g al/ha)
75: AMBEL phytotoxicity rating (0-100) ([14]; 500 g al/ha)
30: SOY crop damage rating (0-100) ([13]; 500 g al/ha)
40: phytotoxicity rating SETVI ([1]; 500 g ai/ha)
10: SETVI phytotoxicity rating (0-100) ([15]; 500 g al/ha) | RICE crop damage rating (0-100) ([25]; 500 g al/ha)
90: CHEAL phytotoxicity rating (0-100) ([21]; 500 g al/ha)
20: CASOB phytotoxicity rating (0-100) ([23]; 500 g al/ha)
95: phytotoxicity rating ABUTH ([6]; 500 g ai/ha)

O=c1n(-c2cc(Oc3ccccc3[N+](=O)[O-])c(Cl)cc2F)c(=S)n2n1CCCC2 [Compound 8-6]
20: phytotoxicity rating SORHA ([2]; 125 g ai/ha) | phytotoxicity rating ECHCG ([5]; 125 g ai/ha) | CORN crop damage rating (0-100) ([24]; 500 g al/ha) | crop damage rating SOY ([26]; 125 g ai/ha)
100: phytotoxicity rating SETVI ([1]; 500 g ai/ha) | phytotoxicity rating AMBEL ([3]; 500 g ai/ha) | phytotoxicity rating DIGSA ([4]; 500 g ai/ha) | phytotoxicity rating ABUTH ([6]; 125 g ai/ha) | phytotoxicity rating ABUTH ([6]; 500 g ai/ha) | phytotoxicity rating CHEAL ([8]; 125 g ai/ha) | phytotoxicity rating CHEAL ([8]; 500 g ai/ha) | phytotoxicity rating AMARE ([9]; 125 g ai/ha) | phytotoxicity rating AMARE ([9]; 500 g ai/ha) | phytotoxicity rating CASOB ([10]; 125 g ai/ha) | ABUTH phytotoxicity rating (0-100) ([19]; 63 g al/ha) | ABUTH phytotoxicity rating (0-100) ([19]; 500 g al/ha) | IPOHE phytotoxicity rating (0-100) ([20]; 500 g al/ha) | AMARE phytotoxicity rating (0-100) ([22]; 63 g al/ha) | AMARE phytotoxicity rating (0-100) ([22]; 500 g al/ha) | CASOB phytotoxicity rating (0-100) ([23]; 500 g al/ha)
5: CORN crop damage rating (0-100) ([24]; 63 g al/ha) | RICE crop damage rating (0-100) ([25]; 63 g al/ha)
95: phytotoxicity rating SETVI ([1]; 125 g ai/ha) | phytotoxicity rating CASOB ([10]; 500 g ai/ha)
50: phytotoxicity rating SORHA ([2]; 500 g ai/ha) | phytotoxicity rating ECHCG ([5]; 500 g ai/ha) | phytotoxicity rating IPOHE ([7]; 125 g ai/ha) | RICE crop damage rating (0-100) ([25]; 500 g al/ha)
40: phytotoxicity rating AMBEL ([3]; 125 g ai/ha) | phytotoxicity rating DIGSA ([4]; 125 g ai/ha) | crop damage rating RICE ([12]; 500 g ai/ha) | crop damage rating SOY ([26]; 500 g ai/ha)
70: SOY crop damage rating (0-100) ([13]; 63 g al/ha)
90: phytotoxicity rating IPOHE ([7]; 500 g ai/ha) | SOY crop damage rating (0-100) ([13]; 500 g al/ha) | AMBEL phytotoxicity rating (0-100) ([14]; 500 g al/ha) | SETVI phytotoxicity rating (0-100) ([15]; 500 g al/ha) | IPOHE phytotoxicity rating (0-100) ([20]; 63 g al/ha) | CHEAL phytotoxicity rating (0-100) ([21]; 63 g al/ha)
0: crop damage rating CORN ([11]; 125 g ai/ha) | crop damage rating CORN ([11]; 500 g ai/ha) | SORHA phytotoxicity rating (0-100) ([16]; 63 g al/ha) | DIGSA phytotoxicity rating (0-100) ([17]; 63 g al/ha)
10: crop damage rating RICE ([12]; 125 g ai/ha) | ECHCG phytotoxicity rating (0-100) ([18]; 63 g al/ha)
30: SETVI phytotoxicity rating (0-100) ([15]; 63 g al/ha) | SORHA phytotoxicity rating (0-100) ([16]; 500 g al/ha) | DIGSA phytotoxicity rating (0-100) ([17]; 500 g al/ha) | ECHCG phytotoxicity rating (0-100) ([18]; 500 g al/ha)
60: AMBEL phytotoxicity rating (0-100) ([14]; 63 g al/ha) | CASOB phytotoxicity rating (0-100) ([23]; 63 g al/ha)
99: CHEAL phytotoxicity rating (0-100) ([21]; 500 g al/ha)
